Source: US8236818B2, “Substituted imidazopyridine derivatives as melanocortin-4 receptor antagonists” (Santhera Pharmaceuticals (Schweiz) AG, priority 2007, dated 2012)

Assays:
[1] = target: T1, melanocortin-4 receptor (Homo sapiens, UniProt P32245); test: Membrane binding assay (fluorescence polarization, competition with fluorescence labeled NDP-alpha-MSH); settings: read-out: hMC-4R binding assay IC50/μM
T1 construct: expressed in transfected cells; host or cells: HEK293 cells (membrane preparations)
T1 sequence (P32245 whole entry): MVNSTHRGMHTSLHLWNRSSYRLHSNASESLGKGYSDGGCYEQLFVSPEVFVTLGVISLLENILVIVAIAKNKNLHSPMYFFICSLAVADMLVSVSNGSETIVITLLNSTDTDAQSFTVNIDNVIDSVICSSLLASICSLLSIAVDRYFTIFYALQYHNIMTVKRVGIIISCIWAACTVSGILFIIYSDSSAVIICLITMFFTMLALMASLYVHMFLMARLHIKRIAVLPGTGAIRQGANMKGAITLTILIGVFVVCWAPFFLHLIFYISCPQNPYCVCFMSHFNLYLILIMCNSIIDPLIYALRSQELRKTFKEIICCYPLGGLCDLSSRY

[2] = target: T1, melanocortin-4 receptor; test: Functional assay (cAMP fluorescence polarization, membrane based, agonistic activity); type: biochemical; settings: for Emax: 2 h, read-out: % activation functional assay; for EC50: agonistic activity, cAMP, HEK293 membrane preparations, read-out: hMC-4R functional assay EC50/μM

| SMILES | IC50 [1] [µM] | Emax [2] [%] | EC50 [2] [µM] |
| --- | --- | --- | --- |
| CC(C)CCN(CCC(C)C)C(=O)c1ccc2nc(-c3ccc(Cl)cc3)c(CCCCN3CCCC3)n2c1 [Example 22] | 0.1 to 1 | 0 |  |
| CCN(C)CCCCc1c(-c2ccc(Cl)cc2)nc2ccc(C(=O)N(CCC(C)C)CCC(C)C)cn12 [Example 23] | 0.1 to 1 | 0 |  |
| CC(C)CCN(CCC(C)C)C(=O)c1ccc2nc(-c3ccc(Cl)cc3)c(CCCCN(C)C)n2c1 [Example 24] | > 1 | 0 |  |
| CC(C)CCN(CCC(C)C)C(=O)c1ccc2nc(-c3ccc(C(N)=O)cc3)c(CCCN3CCCC3)n2c1 [Example 25] | < 0.1 | 0 |  |
| CC(C)CCN(CCC(C)C)C(=O)c1ccc2nc(-c3ccc(C#N)cc3)c(CCN3CCCC3)n2c1 [Example 26] | 0.1 to 1 | 0 |  |
| CC(C)CCN(CCC(C)C)C(=O)c1ccc2nc(-c3ccc(C#N)cc3)c(CCN3CCN(C)CC3)n2c1 [Example 27] | > 1 | 0 |  |
| COc1cccc(-c2nc3ccc(C(=O)N(CCC(C)C)CCC(C)C)cn3c2CCCN(C)C)c1 [Example 28] | 0.1 to 1 | 0 |  |
| CCN(C)CCCc1c(-c2cccc(OC)c2)nc2ccc(C(=O)N(CCC(C)C)CCC(C)C)cn12 [Example 29] | < 0.1 | 0 |  |
| COc1cccc(-c2nc3ccc(C(=O)N(CCC(C)C)CCC(C)C)cn3c2CCCN2CCC(F)CC2)c1 [Example 30] | < 0.1 | 0 |  |
| COc1cccc(-c2nc3ccc(C(=O)N(CCC(C)C)CCC(C)C)cn3c2CCCN2CCCCC2)c1 [Example 31] | < 0.1 | 0 |  |
| COc1cccc(-c2nc3ccc(C(=O)N(CCC(C)C)CCC(C)C)cn3c2CCCN2CC[C@@H](F)C2)c1 [Example 32] | 0.1 to 1 | 0 |  |
| COc1cccc(-c2nc3ccc(C(=O)N(CCC(C)C)CCC(C)C)cn3c2CCCN2CC[C@H](O)C2)c1 [Example 33] | < 0.1 | -22 | < 0.1 |
| COc1cccc(-c2nc3ccc(C(=O)N(CCC(C)C)CCC(C)C)cn3c2CCCN2CC[C@@H](O)C2)c1 [Example 34] | < 0.1 | -18 | < 0.1 |
| CC(C)CCN(CCC(C)C)C(=O)c1ccc2nc(-c3ccc(S(C)(=O)=O)cc3)c(CCCN3CCCC3)n2c1 [Example 35] | < 0.1 | 0 |  |
| COc1cccc(-c2nc3ccc(C(=O)N(CCC(C)C)CCC(C)C)cn3c2CCCN2CCNCC2)c1 [Example 36] | > 1 | 0 |  |
| COc1cccc(-c2nc3ccc(C(=O)N(CCC(C)C)CCC(C)C)cn3c2CCCN2CC(O)C2)c1 [Example 37] | < 0.1 | 0 |  |
| C#CCN(C)CCCc1c(-c2cccc(OC)c2)nc2ccc(C(=O)N(CCC(C)C)CCC(C)C)cn12 [Example 38] | > 1 | 0 |  |
| CC(C)CCN(CCC(C)C)C(=O)c1ccc2nc(-c3ccc4c(c3)OCO4)c(CCCN3CCCC3)n2c1 [Example 39] | < 0.1 | 0 |  |
| Cc1ccnc(-c2nc3ccc(C(=O)N(CCC(C)C)CCC(C)C)cn3c2CCCN2CCCC2)c1 [Example 40] | 0.1 to 1 | 0 |  |
| Cc1cccc(-c2nc3ccc(C(=O)N(CCC(C)C)CCC(C)C)cn3c2CCCN2CCCC2)n1 [Example 41] | < 0.1 | 0 |  |
| CC(C)CCN(CCC(C)C)C(=O)c1ccc2nc(-c3ccc(Cl)cn3)c(CCCN3CCCC3)n2c1 [Example 42] | < 0.1 | 0 |  |
| CC(C)CCN(CCC(C)C)C(=O)c1ccc2nc(-c3ccc4c(c3)NC(=O)CO4)c(CCCN3CCCC3)n2c1 [Example 43] | < 0.1 | 0 |  |
| CC(C)CCN(CCC(C)C)C(=O)c1ccc2nc(-c3cc(O)ccn3)c(CCCN3CCCC3)n2c1 [Example 44] | < 0.1 | 0 |  |
| CC(C)CCN(CCC(C)C)C(=O)c1ccc2nc(-c3ccc4c(c3)CCC(=O)N4)c(CCCN3CCCC3)n2c1 [Example 45] | < 0.1 | 0 |  |
| CC(C)CCN(CCC(C)C)C(=O)c1ccc2nc(-c3cc(O)ccn3)c(CCCN(C)C)n2c1 [Example 46] | 0.1 to 1 | 0 |  |
| CC(C)CCN(CCC(C)C)C(=O)c1ccc2nc(-c3ncco3)c(CCCN3CCCC3)n2c1 [Example 47] | < 0.1 | 0 |  |

| SMILES | IC50 [1] [µM] | Emax [2] [%] | EC50 [2] [µM] |
| --- | --- | --- | --- |
| Cc1nc(C)c(-c2nc3ccc(C(=O)N(CCC(C)C)CCC(C)C)cn3c2CCCN2CCCC2)o1 [Example 48] | < 0.1 | 0 |  |
| CC(C)CCN(CCC(C)C)C(=O)c1ccc2nc(-c3nccs3)c(CCCN3CCCC3)n2c1 [Example 49] | < 0.1 | 0 |  |
| CC(C)CCN(CCC(C)C)C(=O)c1ccc2nc(-c3ccc(C(=O)O)cc3)c(CCCN3CCCC3)n2c1 [Example 50] | 0.1 to 1 | -1 |  |
| CC(C)CCN(CCC(C)C)C(=O)c1ccc2nc(-c3ccc(N(C)C)nc3)c(CCCN(C)C)n2c1 [Example 51] | < 0.1 | 0 |  |
| CC(C)CCN(CCC(C)C)C(=O)c1ccc2nc(-c3ncco3)c(CCCN(C)C)n2c1 [Example 52] | 0.1 to 1 | 0 |  |
| COc1cccc(-c2nc3ccc(C(=O)N(CCC(C)C)CCC(C)C)cn3c2CC(C)CN2CCCC2)c1 (stereo not shown) [Example 54] | 0.1 to 1 | 0 |  |
| CC(C)CCN(CCC(C)C)C(=O)c1ccc2nc(-c3ccccn3)c(CCCN3CCCC3)n2c1 [Example 55] | 0.1 to 1 | 0 |  |
| CC(C)CCN(CCC(C)C)C(=O)c1ccc2nc(-c3ccncc3)c(CCCN3CCCC3)n2c1 [Example 56] | < 0.1 | 0 |  |
| Cc1ccc(-c2nc3ccc(C(=O)N(CCC(C)C)CCC(C)C)cn3c2CCCN2CCCC2)nc1 [Example 57] | < 0.1 | 0 |  |
| Cc1ccc(-c2nc3ccc(C(=O)N(CCC(C)C)CCC(C)C)cn3c2CCCN(C)C)nc1 [Example 58] | > 1 | 0 |  |
| CC(C)CCN(CCC(C)C)C(=O)c1ccc2nc(-c3ccc(=O)[nH]c3)c(CCCN3CCCC3)n2c1 [Example 59] | < 0.1 | 0 |  |
| COc1cccc(-c2nc3ccc(C(=O)N(CCC(C)C)CCC(C)C)cn3c2CCCN(C(C)C)C(C)C)c1 [Example 60] | 0.1 to 1 | 0 |  |
| CC(C)CCN(CCC(C)C)C(=O)c1ccc2nc(-c3nccs3)c(CCCN(C)C)n2c1 [Example 61] | 0.1 to 1 | 0 |  |
| CC(C)CCN(CCC(C)C)C(=O)c1ccc2nc(-c3cccc(=O)[nH]3)c(CCCN3CCCC3)n2c1 [Example 62] | 0.1 to 1 | 0 |  |
| CC(C)CCN(CCC(C)C)C(=O)c1ccc2nc(-c3ccc(C(=O)N(C)C)cc3)c(CCCN3CCCC3)n2c1 [Example 63] | 0.1 to 1 | 0 |  |
| CNC(=O)c1ccc(-c2nc3ccc(C(=O)N(CCC(C)C)CCC(C)C)cn3c2CCCN2CCCC2)cc1 [Example 64] | < 0.1 | 0 |  |
| CC(C)CCN(CCC(C)C)C(=O)c1ccc2nc(-c3ccc(N)nc3)c(CCCN3CCCC3)n2c1 [Example 65] | < 0.1 | 0 |  |
| CC(C)CCN(CCC(C)C)C(=O)c1ccc2nc(-c3ccc(Cl)nc3)c(CCCN(C)C)n2c1 [Example 66] | 0.1 to 1 | 0 |  |
| CC(C)CCN(CCC(C)C)C(=O)c1ccc2nc(-c3ccc(Cl)nc3)c(CCCN3CCCC3)n2c1 [Example 67] | < 0.1 | 0 |  |
| CC(C)CCN(CCC(C)C)C(=O)c1ccc2nc(-c3ccc(=O)[nH]c3)c(CCCN(C)C)n2c1 [Example 68] | 0.1 to 1 | 0 |  |
| CC(C)CCN(CCC(C)C)C(=O)c1ccc2nc(-c3ncco3)c(CCCN3CCCC3C)n2c1 (stereo not shown) [Example 69] | < 0.1 | 0 |  |
| CC(C)CCN(CCC(C)C)C(=O)c1ccc2nc(-c3ncco3)c(CCCN3CCC[C@@H]3CO)n2c1 [Example 70] | 0.1 to 1 | 0 |  |
| CC(C)CCN(CCC(C)C)C(=O)c1ccc2nc(-c3ncco3)c(CCCN3CC[C@@H](O)C3)n2c1 [Example 71] | 0.1 to 1 | 0 |  |
| CC(C)CCN(CCC(C)C)C(=O)c1ccc2nc(-c3ncco3)c(CCCN3CC[C@@H](F)C3)n2c1 [Example 72] | 0.1 to 1 | 2 |  |
| CC(C)CCN(CCC(C)C)C(=O)c1ccc2nc(-c3ncco3)c(CCCN3CC(O)C3)n2c1 [Example 73] | 0.1 to 1 | -3 |  |
| CC(C)CCN(CCC(C)C)C(=O)c1ccc2nc(-c3ncco3)c(CCCN3CCC3)n2c1 [Example 74] | 0.1 to 1 | 1 |  |
